These results are taken from US10894805B2, “Prodrugs of the selective progesterone receptor modulator (SPRM) (11β,17β)-17-Hydroxy-11-[4-(methylsulphonyl)phenyl] -17-(pentafluoroethyl)estra-4,9-dien-3-one” (BAYER PHARMA AKTIENGESELLSCHAFT, priority 2016, dated 2021).

Data set [1] is described as follows: Plasma concentrations of Compound 3 and its metabolite Compound 2 in rats. The data set is classed as in vivo, rat. How it is done:
Under the same conditions as described in Example 3, Compound 3 (5 mg/kg/day) was administered to female rats at a dose of 5 mg/kg. Blood samples were taken from the rats at several time-points (0.5, 1, 3, 6 h, N=3 animals at each time-point), to allow for calculation of AUC (0-inf) of compound 3 and compound 2 in rat plasma.
The plasma samples were stored at −15° C. until analysis. Compound 3 and compound 2 were determined in plasma after protein precipitation with acetonitrile containing the internal standards for compound 3 and compound 2. The supernatant was analyzed by separation employing high-pressure liquid chromatography and tandem mass spectrometric detection. AUC (0-inf) means Area Under the plasma Concentration vs. time curve (0-inf) from zero to infinity.

In data set [2] the target is T1, human progesterone receptor A (Homo sapiens, UniProt P06401).
T1 construct: expressed in transfected cells; host or cells: SK-N-MC (human neuroblastoma cells), stably transfected
T1 sequence (P06401 1-769 isoform P06401-2): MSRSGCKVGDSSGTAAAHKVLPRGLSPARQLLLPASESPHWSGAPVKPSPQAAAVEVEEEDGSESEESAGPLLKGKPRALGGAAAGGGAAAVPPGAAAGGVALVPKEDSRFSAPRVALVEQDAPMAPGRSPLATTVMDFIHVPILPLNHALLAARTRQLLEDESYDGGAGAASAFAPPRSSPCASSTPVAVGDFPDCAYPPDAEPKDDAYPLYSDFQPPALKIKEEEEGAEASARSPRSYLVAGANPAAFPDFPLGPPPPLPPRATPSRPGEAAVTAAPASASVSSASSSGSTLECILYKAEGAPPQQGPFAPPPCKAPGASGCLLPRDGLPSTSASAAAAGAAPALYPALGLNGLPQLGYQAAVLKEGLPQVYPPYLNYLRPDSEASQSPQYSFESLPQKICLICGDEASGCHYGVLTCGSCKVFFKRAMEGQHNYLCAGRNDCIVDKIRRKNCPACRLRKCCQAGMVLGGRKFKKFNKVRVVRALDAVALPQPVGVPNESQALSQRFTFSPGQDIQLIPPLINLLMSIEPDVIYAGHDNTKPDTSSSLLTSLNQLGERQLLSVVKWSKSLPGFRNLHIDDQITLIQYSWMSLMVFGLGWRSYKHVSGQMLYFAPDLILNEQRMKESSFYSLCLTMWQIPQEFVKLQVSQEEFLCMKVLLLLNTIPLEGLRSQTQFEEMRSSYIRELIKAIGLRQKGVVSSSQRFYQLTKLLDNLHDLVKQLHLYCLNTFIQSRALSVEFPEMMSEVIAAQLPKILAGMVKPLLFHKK
Briefly: PR-A transactivation assay in SK-N-MC cells (method as described in WO2011/009531). The data set is classed as cell-based. The procedure: (§1) SK-N-MC cells (human neuroblastoma cells), which have been stably transfected with plasmids, which express the human progesterone receptor B ([…]) or the human progesterone receptor A (pRChPR-A-neo) and a reporter construct (pMMTV-LUC), were incubated for 24 hours either in the absence (negative control) or in the presence of increasing amounts of the respective Compound 2 (0.01 nmol/l, 0.1 nmol/l, 1 nmol/l, 10 nmol/l, 100 nmol/land […]), in order to determine the agonistic efficacy. As positive control of reporter gene induction, the cells were treated with the synthetic gestagen promegestone (0.01 nmol/l, 0.1 nmol/l, 1 nmol/l, 10 nmol/l, 100 nmol/l and […]). For determination of the antagonistic activity, the cells were treated with 0.1 nmol/l promegestone and additionally with increasing amounts of the respective test compound (0.01 nmol/l, 0.1 nmol/l, 1 nmol/l, 10 nmol/l, 100 nmol/l and […]). The activity of the LUC reporter gene (LUC=luciferase) was determined in the cell lysates and was measured as RLU (relative light units).

Data set [3] has as its target T2, human progesterone receptor B (Homo sapiens, UniProt P06401).
T2 construct: expressed in transfected cells; host or cells: SK-N-MC (human neuroblastoma cells), stably transfected
T2 sequence (P06401 1-933): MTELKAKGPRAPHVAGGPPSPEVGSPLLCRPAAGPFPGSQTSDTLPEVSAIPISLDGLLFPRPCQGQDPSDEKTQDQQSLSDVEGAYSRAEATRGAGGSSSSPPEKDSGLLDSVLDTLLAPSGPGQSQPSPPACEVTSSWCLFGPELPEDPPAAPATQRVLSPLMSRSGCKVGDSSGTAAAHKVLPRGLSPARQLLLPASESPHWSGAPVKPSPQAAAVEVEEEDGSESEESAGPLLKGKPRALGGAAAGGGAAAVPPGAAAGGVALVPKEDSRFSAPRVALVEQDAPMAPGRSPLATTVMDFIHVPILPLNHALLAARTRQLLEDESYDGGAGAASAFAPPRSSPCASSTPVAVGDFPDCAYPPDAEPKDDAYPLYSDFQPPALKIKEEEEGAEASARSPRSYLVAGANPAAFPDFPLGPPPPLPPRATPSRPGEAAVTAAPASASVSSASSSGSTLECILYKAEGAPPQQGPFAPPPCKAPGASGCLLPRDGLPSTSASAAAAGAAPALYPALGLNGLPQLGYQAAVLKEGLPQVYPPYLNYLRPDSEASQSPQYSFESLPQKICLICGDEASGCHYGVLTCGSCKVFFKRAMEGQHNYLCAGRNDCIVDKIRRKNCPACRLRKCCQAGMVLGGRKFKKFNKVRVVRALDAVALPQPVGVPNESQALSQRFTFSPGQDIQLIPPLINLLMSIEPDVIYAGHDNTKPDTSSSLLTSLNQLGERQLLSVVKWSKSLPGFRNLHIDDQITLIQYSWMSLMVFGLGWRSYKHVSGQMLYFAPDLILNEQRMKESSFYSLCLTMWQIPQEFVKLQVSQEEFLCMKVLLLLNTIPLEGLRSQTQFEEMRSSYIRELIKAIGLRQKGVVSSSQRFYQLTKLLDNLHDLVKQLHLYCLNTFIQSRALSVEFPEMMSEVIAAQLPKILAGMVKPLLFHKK
The data set is described as follows: PR-B transactivation assay in SK-N-MC cells (method as described in WO2011/009531). The data set is classed as cell-based. The procedure: as §1

Data set [4] in a line: In vitro metabolism of 14C-labeled Compound 2 in human liver cytosol. The data set is classed as in vitro ADME. How it is done: Human liver cytosol was incubated with (11β,17β)-17-Hydroxy-11-[4-(methylsulphonyl)phenyl]-17-(pentafluoroethyl)estra-4,9-dien-3-one (Compound 2).
The incubation mixture containing buffer, reconstituting system and cytosolic protein was preincubated at 37° C. for 3 min. Incubation was started by the addition of the solution containing (11β,17β)-17-Hydroxy-11-[4-(methylsulphonyl)phenyl]-17-(pentafluoroethyl)estra-4,9-dien-3-one (Compound 2). The samples were incubated at 37° C. in a continuously operating shaking water bath. 250 μL of the incubation mixture was stopped by the addition of 100 μL acetonitrile. The stopped incubations were centrifuged for 10 minutes at 13000 rpm (4° C.) and stored at −18° C. until they were subsequently analysed. 50 μL of the supernatant was examined by chromatography and detected by radiometry and mass spectrometry.

A short description of data set [5]: Plasma concentrations and pharmacokinetic parameters of Compounds 1 and 2 in rats after oral Compound 1. The class given is in vivo, rat. The settings on record: for Cmax: po. The procedure:
Under the same conditions as described in Example 2 three single dosages of Compound 1 (0.2, 1.0 and 5 mg/kg/day) were administered to rats. Blood samples were taken from the rats at several time-points (1, 2, 4, 7 and 24 h, N=3 animals at each time-point), to allow for calculation of AUC (0-24) and Cmax of compound 1 and compound 2 in rat plasma. The plasma samples were stored at −15° C. until analysis. Compound 1 and 2 were determined in plasma after protein precipitation with acetonitrile containing the internal standards for compound 1 and compound 2. The supernatant was analyzed by separation employing high-pressure liquid chromatography and tandem mass spectrometric detection. The lower limit of quantitation (LLOQ) for Compound 1 was 1.00 μg/L, the linear range between 1.00 and 200 μg/L. The lower limit of quantitation (LLOQ) for Compound 2 was 0.200 μg/L, the linear range between 0.200 and 200 μg/L. A sample volume of 0.1 mL plasma was used. The precision for Compound 1 ranged between 0.97 and 3.73%, accuracy between 99.8 and 101.3%, for Compound 2 precision ranged between 2.01 and 6.19%, accuracy between 92.3 and 96.6% calculated from the study quality control samples.

The nature of data set [6]: In vitro metabolism of 14C-labeled Compound 1 in human liver microsomes. The data set is classed as in vitro ADME. How it is done:
Human liver microsomes were incubated with (3α,11β,17β)-11-[4-(^14C-methylsulfonyl)phenyl]-17-(pentafluoroethyl)estra-4,9-diene-3,17-diol (Compound 1).
The incubation mixture containing buffer, reconstituting system and microsomal protein was preincubated at 37° C. for 3 min. Incubation was started by the addition of the solution containing (3α,11β,17β)-11-[4-(methylsulfonyl)phenyl]-17-(pentafluoroethyl)estra-4,9-diene-3,17-diol (Compound 1). The samples were incubated at 37° C. in a continuously operating shaking water bath. The incubation reaction was stopped by the addition of 160 μL acetonitrile. The stopped incubations were centrifuged for 10 minutes at 13000 rpm (4° C.) and stored at −18° C. until they were subsequently analysed. 50 μL of the supernatant was examined by chromatography and detected by radiometry and mass spectrometry.

The next data set concerns the target recombinant human CYP3A4 (Homo sapiens, UniProt P08684). Briefly: In vitro metabolism of 14C-labeled Compound 1 in recombinant human CYP3A4 enzyme. The class given is in vitro ADME. The procedure:
Recombinant human CYP3A4 was incubated with (3α,11β,17β)-11-[4-(^14C-methylsulfonyl)phenyl]-17-(pentafluoroethyl)estra-4,9-diene-3,17-diol (Compound 1).
The incubation mixture containing buffer, reconstituting system and CYP3A4 protein was prepared and given into a 37° C. shaking water bath. Incubation was started by the addition of the solution containing (3α,11β,17β)-11-[4-(methylsulfonyl)phenyl]-17-(pentafluoroethyl)estra-4,9-diene-3,17-diol (Compound 1). The samples were incubated at 37° C. in a continuously operating shaking water bath. 200 μL of the incubation mixture were removed after incubation time and the reaction was stopped by the addition of 120 μL acetonitrile on an ice bath. The stopped incubations were centrifuged for 10 minutes at 12000 rpm (7° C.). After removing of the supernatant from the protein pellet the supernatant was stored at −20° C. until they were subsequently analysed. 50 μL of the supernatants was examined by chromatography and detected by radiometry and mass spectrometry.

A further data set deals with Progesterone receptor. The settings on record: DeManno et al., Steroids 68 (2003); cited from earlier work.
Setting [7] is: rat plasma, single p.o. dose of Compound 1, 0.2 mg/kg.

Chain of recombinant human CYP3A4 (P08684 whole entry): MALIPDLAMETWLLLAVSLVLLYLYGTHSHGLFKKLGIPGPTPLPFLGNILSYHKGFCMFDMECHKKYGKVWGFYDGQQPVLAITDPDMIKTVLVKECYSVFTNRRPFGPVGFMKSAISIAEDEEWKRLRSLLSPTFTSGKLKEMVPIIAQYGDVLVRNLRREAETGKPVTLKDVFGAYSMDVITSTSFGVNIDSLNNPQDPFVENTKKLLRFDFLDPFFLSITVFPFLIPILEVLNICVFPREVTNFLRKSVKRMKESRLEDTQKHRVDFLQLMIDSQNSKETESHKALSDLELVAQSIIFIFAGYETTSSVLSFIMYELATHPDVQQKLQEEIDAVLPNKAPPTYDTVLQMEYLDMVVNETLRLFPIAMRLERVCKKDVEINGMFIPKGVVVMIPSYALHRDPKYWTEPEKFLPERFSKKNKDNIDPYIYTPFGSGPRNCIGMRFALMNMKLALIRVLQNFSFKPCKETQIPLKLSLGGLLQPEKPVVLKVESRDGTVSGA

For `C[C@]12C[C@H](c3ccc([S@](C)(=N)=O)cc3)C3=C4CCC(=O)C=C4CCC3C1CC[C@@]2(O)C(F)(F)C(F)(F)F` (stereo partly drawn) [Compound 3, (11β,17β)-17-hydroxy-11-[4-(RS-methylsulphonimidoyl)phenyl]-17-(pentafluoroethyl)estra-4,9-dien-3-one], in data set [1] (after oral Compound 3), the “conversion into Compound 2 in rat” value is listed as “partially converted”. The AUC(0-inf) in data set [1] (po, rat plasma, single p.o. 5 mg/kg of Compound 3, female rats) worked out at 1240 ng·h/mL.
As for `C[C@]12C[C@H](c3ccc(S(C)(=O)=O)cc3)C3=C4CCC(=O)C=C4CC[C@H]3[C@@H]1CC[C@@]2(O)C(F)(F)C(F)(F)F` [Compound 2, (11β,17β)-17-Hydroxy-11-[4-(methylsulphonyl)phenyl]-17-(pentafluoroethyl)estra-4,9-dien-3-one], in data set [2], the “agonistic activity on PR-A” value is on record as “no agonistic activity” and the “antagonism on PR-A” value is “very strong antagonist”. Besides, in data set [3], the “agonistic activity on PR-B” value was “no agonistic activity” and the “antagonism on PR-B” value is listed as “very strong antagonist”. The “proportion of Compound 2 compared to 0 hr sample” value in data set [4] (10 μM, 1.0 mg/mL cytosolic protein, NADPH, after 1 and 4 hours) was “marked decrease”. In data set [4] (absence of NADPH generating system as well as presence of NAD co-factor), the “turnover of Compound 2 to Compound 1 in liver cytosol” value is given as “No turnover”. Also, the “Compound 1 formed in the incubation sample” value in data set [4] (incubation of 10 μM Compound 2, after 1 and 4 hours) is listed as “significant quantity”.
On to `C[C@]12C[C@H](c3ccc(S(C)(=O)=O)cc3)C3=C4CC[C@@H](O)C=C4CC[C@H]3[C@@H]1CC[C@@]2(O)C(F)(F)C(F)(F)F` [Compound 1, (3α,11β,17β)-11-[4-(methylsulfonyl)phenyl]-17-(pentafluoroethyl)estra-4,9-diene-3,17-diol], for which the “conversion into Compound 2 in rat” value in data set [5] (after oral Compound 1) was “almost completely converted”. The Cmax in data set [5] (setting [7]) is less than 1 ng/mL; in data set [5] (rat plasma, single p.o. dose of Compound 1, 1.0 mg/kg), 3.36 ng/mL; in data set [5] (rat plasma, single p.o. dose of Compound 1, 5.0 mg/kg) it was 12.9 ng/mL. Further, the “Compound 1 Cmax” value in data set [5] (setting [7]) was less than 1.00 ng/mL. The “maximum concentration of remaining compound 1 in rat plasma” value in data set [5] (single oral dose of Compound 1, 5.0 mg/kg) came out at 12.9 µg/L. Besides, the “proportion of Compound 1 compared to 0 hr sample” value in data set [6] (1 μM, 0.5 mg/mL protein, after 1 hours incubation) is listed as “marked decrease”; at recombinant human CYP3A4 (after 0.5 and 2 hours incubation with rhCYP3A4), “marked decrease”. For the same compound, the “Compound 2 formed in the incubation sample” value in data set [6] (incubation of 1 μM Compound 1, after 1 hour) is recorded as “large quantity”; at recombinant human CYP3A4 (incubation of Compound 1 with rhCYP3A4), “large quantity”. For the same compound, at recombinant human CYP3A4 (incubation of Compound 1 with rhCYP3A4, after 120 min), the “amount of compound 2 in the incubation sample” value is reported as “decreased remarkably”. Besides, the results for the “Compound 1 (% of 14C-radioactivity)” value on recombinant human CYP3A4 (incubation time with rhCYP3A4 0 h), at recombinant human CYP3A4 (incubation time with rhCYP3A4 0.5 h) and at recombinant human CYP3A4 (incubation time with rhCYP3A4 2 h) were 82%, 52% and 2.7%, respectively.
`COC[C@]1(OC)CC[C@H]2[C@@H]3CCC4=CC(=O)CCC4=C3[C@@H](c3ccc(/C=N/O)cc3)C[C@@]21C` [Asoprisnil (J867), Asoprisnil]: the “Progesterone binding affinity, Relative molar Binding Affinity (RBA)” value in the data set on Progesterone receptor is listed as “about 299 % RBA”.
